In US11957759B1, “Rapidly accelerated fibrosarcoma (RAF) degrading compounds and associated methods of use” (Arvinas Operations, Inc., priority 2022, dated 2024):

Legend:
B-RAF G466V = molecular target: T1, B-RAF G466V (Homo sapiens, UniProt P15056, G466V); assay: Target protein degradation, assay D: T-Rex 293 cells, HA-BRAF_G466V, 384 well format; format: cell-based; details: T-Rex 293 HA-BRAF_G466V cells, 24 hours, Examples 83-269; for DC50: Assay D; for Dmax: T-REx-293, Assay D
T1 construct: expressed in transfected cells; host or cells: T-Rex 293 cells (Invitrogen #R71007)
T1 sequence (P15056 whole entry G466V): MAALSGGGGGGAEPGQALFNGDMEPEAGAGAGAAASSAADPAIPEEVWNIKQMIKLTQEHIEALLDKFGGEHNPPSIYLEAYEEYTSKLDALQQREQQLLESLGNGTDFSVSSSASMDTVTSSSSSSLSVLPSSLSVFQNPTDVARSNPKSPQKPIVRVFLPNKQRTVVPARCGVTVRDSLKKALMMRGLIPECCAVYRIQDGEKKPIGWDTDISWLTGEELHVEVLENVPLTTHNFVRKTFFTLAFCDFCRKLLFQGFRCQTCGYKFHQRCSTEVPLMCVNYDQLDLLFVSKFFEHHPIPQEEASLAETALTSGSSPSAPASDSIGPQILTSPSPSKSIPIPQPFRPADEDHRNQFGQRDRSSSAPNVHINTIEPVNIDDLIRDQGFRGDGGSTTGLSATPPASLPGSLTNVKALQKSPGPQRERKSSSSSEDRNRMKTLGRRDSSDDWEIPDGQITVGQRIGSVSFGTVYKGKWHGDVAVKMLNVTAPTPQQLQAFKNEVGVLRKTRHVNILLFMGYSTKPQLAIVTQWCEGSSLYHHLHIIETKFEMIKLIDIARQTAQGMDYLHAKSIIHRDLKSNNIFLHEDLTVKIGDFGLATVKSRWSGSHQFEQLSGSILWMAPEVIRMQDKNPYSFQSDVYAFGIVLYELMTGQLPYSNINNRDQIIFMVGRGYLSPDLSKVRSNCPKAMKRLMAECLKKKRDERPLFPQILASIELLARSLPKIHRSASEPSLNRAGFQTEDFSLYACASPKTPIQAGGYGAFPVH
How it was run: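 T-Rex 293 cells stably expressing doxycycline-induced (1 ng/mL) HA-BRAF G466V treated 24 h at 37 °C with PROTACs, 11-point 1:3 dilution, 300 nM to 5 pM final, 0.5% DMSO. Fixed cells immunostained for HA and imaged by high-content microscopy; DC50 and Dmax (% of control) derived, toxicity from nuclei counts versus DMSO.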

B-RAF V600E = molecular target: T2, B-RAF V600E (Homo sapiens, UniProt P15056, V600E); assay: Target protein degradation, assay C: T-Rex 293 cells, HA-BRAF_V600E, 384 well format; format: cell-based; details: T-Rex 293 HA-BRAF_V600E cells, 24 hours, Examples 83-269; for DC50: Assay C; for Dmax: T-REx-293, Assay C
T2 construct: expressed in transfected cells; host or cells: T-Rex 293 cells (Invitrogen #R71007)
T2 sequence (P15056 whole entry V600E): as the sequence (P15056 whole entry G466V) above, with V466G, V600E counted along it
How it was run: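 T-Rex 293 cells stably expressing doxycycline-induced (1 ng/mL) HA-BRAF V600E were treated 24 h at 37 °C with compound (300 nM–5 pM, 11 points, 0.5% DMSO). HA immunofluorescence was quantified by high-content imaging to give DC50 and Dmax (% of control); nuclei counts versus DMSO gauged toxicity.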

Structure (SMILES)	DC50 (B-RAF G466V) [nM]	DC50 (B-RAF V600E) [nM]	Dmax (B-RAF V600E) [%]	Dmax (B-RAF G466V) [%]
N#Cc1c(NS(=O)(=O)N2CC[C@@H](F)C2)ccc(F)c1Oc1ccc2ncn(-c3ccc(N4CCC(CC5CCCN5c5ccc6c(c5)C(=O)N(C5CCC(=O)NC5=O)C6=O)CC4)nc3)c(=O)c2c1 (stereo partly drawn) [Example 160, (3R)-N-{2-cyano-3-[(3-{6-[4-({1-[2-(2,6-dioxopiperidin-3-yl)-1,3-dioxo-2,3-dihydro-1H-isoindol-5-yl]pyrrolidin-2-yl}methyl)piperidin-1-yl]pyridin-3-yl}-4-oxo-3,4-dihydroquinazolin-6-yl)oxy]-4-fluorophenyl}-3-fluoropyrrolidine-1-sulfonamide]	> 30	50 to 500	≤ 35	
N#Cc1c(NS(=O)(=O)N2CC[C@@H](F)C2)ccc(F)c1Oc1ccc2ncn(-c3ccc(N4CCC5(CC4)CC(OC4CCN(c6ccc7c(c6)CN([C@H]6CCC(=O)NC6=O)C7=O)CC4)C5)cc3)c(=O)c2c1 [Example 250, (3R)—N-(2-cyano-3-{[3-(4-{2-[(1-{2-[(3S)-2,6-dioxopiperidin-3-yl]-1-oxo-2,3-dihydro-1H-isoindol-5-yl}piperidin-4-yl)oxy]-7-azaspiro[3.5]nonan-7-yl}phenyl)-4-oxo-3,4-dihydroquinazolin-6-yl]oxy}-4-fluorophenyl)-3-fluoropyrrolidine-1-sulfonamide]	1 to 10	50 to 500	35 to 70	35 to 70
N#Cc1c(NS(=O)(=O)N2CC[C@@H](F)C2)ccc(F)c1Oc1ccc2ncn(-c3cnc(N4CCCC4CC4CCN(c5ccc6c(c5)C(=O)N(C5CCC(=O)NC5=O)C6=O)CC4)nc3)c(=O)c2c1 (stereo partly drawn) [Example 130, (3R)-N-{2-cyano-3-[(3-{2-[2-({1-[2-(2,6-dioxopiperidin-3-yl)-1,3-dioxo-2,3-dihydro-1H-isoindol-5-yl]piperidin-4-yl}methyl)pyrrolidin-1-yl]pyrimidin-5-yl}-4-oxo-3,4-dihydroquinazolin-6-yl)oxy]-4-fluorophenyl}-3-fluoropyrrolidine-1-sulfonamide]	10 to 30	> 500		≤ 35
CCc1c(NS(=O)(=O)N2CC[C@@H](F)C2)ccc(F)c1Oc1ccc2ncn(-c3ccc(N4CCN(CC5CCN(c6ccc7c(c6)CN(C6CCC(=O)NC6=O)C7=O)CC5)CC4)cc3)c(=O)c2c1 (stereo partly drawn) [Example 227, (3R)-N-{3-[(3-{4-[4-({1-[2-(2,6-dioxopiperidin-3-yl)-1-oxo-2,3-dihydro-1H-isoindol-5-yl]piperidin-4-yl}methyl)piperazin-1-yl]phenyl}-4-oxo-3,4-dihydroquinazolin-6-yl)oxy]-2-ethyl-4-fluorophenyl}-3-fluoropyrrolidine-1-sulfonamide]	10 to 30	50 to 500	≤ 35	≤ 35
N#Cc1c(NS(=O)(=O)N2CC[C@H](F)C2)ccc(F)c1Oc1ccc2ncn(-c3ccc(N4CCN(CC5CN(c6ccc7c(c6)CN([C@H]6CCC(=O)NC6=O)C7=O)C5)CC4)cc3)c(=O)c2c1 [Example 195, (3S)-N-(2-cyano-3-{[3-(4-{4-[(1-{2-[(3S)-2,6-dioxopiperidin-3-yl]-1-oxo-2,3-dihydro-1H-isoindol-5-yl}azetidin-3-yl)methyl]piperazin-1-yl}phenyl)-4-oxo-3,4-dihydroquinazolin-6-yl]oxy}-4-fluorophenyl)-3-fluoropyrrolidine-1-sulfonamide]	1 to 10	50 to 500	≤ 35	≤ 35
N#Cc1c(NS(=O)(=O)N2CC[C@@H](F)C2)ccc(F)c1Oc1ccc2ncn(-c3ccc(C4CCC5(CC4)CCN(CC4CCN(c6ccc7c(c6)CN([C@H]6CCC(=O)NC6=O)C7=O)CC4)CC5)cc3)c(=O)c2c1 [Example 226, (3R)-N-(2-cyano-3-{[3-(4-{3-[(1-{2-[(3S)-2,6-dioxopiperidin-3-yl]-1-oxo-2,3-dihydro-1H-isoindol-5-yl}piperidin-4-yl)methyl]-3-azaspiro[5.5]undecan-9-yl}phenyl)-4-oxo-3,4-dihydroquinazolin-6-yl]oxy}-4-fluorophenyl)-3-fluoropyrrolidine-1-sulfonamide]	1 to 10	50 to 500	≤ 35	35 to 70
CN(c1ccc2c(c1)CN([C@H]1CCC(=O)NC1=O)C2=O)[C@H]1CC[C@@H](N2CCN(c3ccc(-n4cnc5ccc(Oc6c(F)ccc(NS(=O)(=O)N7CC[C@@H](F)C7)c6C#N)cc5c4=O)cc3)CC2)CC1 [Example 230, (3R)-N-(2-cyano-4-fluoro-3-{[4-oxo-3-(4-(4-[(1r,4r)-4-({2-[(3S)-2,6-dioxopiperidin-3-yl]-1-oxo-2,3-dihydro-1H-isoindol-5-yl}(methyl)amino)cyclohexyl]piperazin-1-yl}phenyl)-3,4-dihydroquinazolin-6-yl]oxy}phenyl)-3-fluoropyrrolidine-1-sulfonamide]	1 to 10	50 to 500	35 to 70	35 to 70
N#Cc1c(NS(=O)(=O)N2CC[C@@H](F)C2)ccc(F)c1Oc1ccc2ncn(-c3ccc(C4CCN(CC5CCN(c6ccc7c(c6)CN([C@H]6CCC(=O)NC6=O)C7=O)CC5)C4)cc3)c(=O)c2c1 (stereo partly drawn) [Example 208, (3R)-N-(2-cyano-3-{[3-(4-{1-[(1-{2-[(3S)-2,6-dioxopiperidin-3-yl]-1-oxo-2,3-dihydro-1H-isoindol-5-yl}piperidin-4-yl)methyl]pyrrolidin-3-yl}phenyl)-4-oxo-3,4-dihydroquinazolin-6-yl]oxy}-4-fluorophenyl)-3-fluoropyrrolidine-1-sulfonamide]	1 to 10	5 to 50	35 to 70	≤ 35
N#Cc1c(NS(=O)(=O)N2CC[C@@H](F)C2)ccc(F)c1Oc1ccc2ncn(-c3ccc(N4CCC(CN5CCC6(CCC(c7ccc8c(c7)CN([C@H]7CCC(=O)NC7=O)C8=O)CC6)CC5)CC4)cc3)c(=O)c2c1 [Example 262, (3R)-N-(2-cyano-3-{[3-(4-{4-[(9-{2-[(3S)-2,6-dioxopiperidin-3-yl]-1-oxo-2,3-dihydro-1H-isoindol-5-yl}-3-azaspiro[5.5]undecan-3-yl)methyl]piperidin-1-yl}phenyl)-4-oxo-3,4-dihydroquinazolin-6-yl]oxy}-4-fluorophenyl)-3-fluoropyrrolidine-1-sulfonamide]	1 to 10	5 to 50	≥ 70	≥ 70
N#Cc1c(NS(=O)(=O)N2CC[C@@H](F)C2)ccc(F)c1Oc1ccc2ncn(-c3ccc(N4CCC(CN5CCN(CC6CCN(c7ccc8c(c7)CN([C@H]7CCC(=O)NC7=O)C8=O)CC6)CC5)CC4)cc3)c(=O)c2c1 [Example 185, (3R)-N-{2-cyano-3-[(3-{4-[4-({4-[(1-{2-[(3S)-2,6-dioxopiperidin-3-yl]-1-oxo-2,3-dihydro-1H-isoindol-5-yl}piperidin-4-yl)methyl]piperazin-1-yl}methyl)piperidin-1-yl]phenyl}-4-oxo-3,4-dihydroquinazolin-6-yl)oxy]-4-fluorophenyl}-3-fluoropyrrolidine-1-sulfonamide]	10 to 30	50 to 500	35 to 70	≤ 35
C[C@H]1CC(CN2CCC(c3ccc4c(c3)CN(C3CCC(=O)NC3=O)C4=O)CC2)CCN1c1ccc(-n2cnc3ccc(Oc4c(F)ccc(NS(=O)(=O)N5CC[C@@H](F)C5)c4C#N)cc3c2=O)cc1 (stereo partly drawn) [Example 232, (3R)-N-{2-cyano-3-[(3-{4-[(2S)-4-({4-[2-(2,6-dioxopiperidin-3-yl)-1-oxo-2,3-dihydro-1H-isoindol-5-yl]piperidin-1-yl}methyl)-2-methylpiperidin-1-yl]phenyl}-4-oxo-3,4-dihydroquinazolin-6-yl)oxy]-4-fluorophenyl}-3-fluoropyrrolidine-1-sulfonamide]	1 to 10	50 to 500	35 to 70	35 to 70
N#Cc1c(NS(=O)(=O)N2CC[C@@H](F)C2)ccc(F)c1Oc1ccc2ncn(-c3ccc(N4CCC(CCN5CCN(c6ccc7c(c6)C(=O)N(C6CCC(=O)NC6=O)C7=O)CC5)CC4)nc3)c(=O)c2c1 (stereo partly drawn) [Example 163, (3R)-N-{2-cyano-3-[(3-{6-[4-(2-{4-[2-(2,6-dioxopiperidin-3-yl)-1,3-dioxo-2,3-dihydro-1H-isoindol-5-yl]piperazin-1-yl}ethyl)piperidin-1-yl]pyridin-3-yl}-4-oxo-3,4-dihydroquinazolin-6-yl)oxy]-4-fluorophenyl}-3-fluoropyrrolidine-1-sulfonamide]	10 to 30	50 to 500	35 to 70	≤ 35
N#Cc1c(NS(=O)(=O)N2CC[C@@H](F)C2)ccc(F)c1Oc1ccc2ncn(-c3ccc(N4CCN(CC5CCN(c6ccc7c(c6)CN(C6CCC(=O)NC6=O)C7=O)CC5)CC4)cn3)c(=O)c2c1 (stereo partly drawn) [Example 83, (3R)-N-{2-cyano-3-[(3-{5-[4-({1-[2-(2,6-dioxopiperidin-3-yl)-1-oxo-2,3-dihydro-1H-isoindol-5-yl]piperidin-4-yl}methyl)piperazin-1-yl]pyridin-2-yl}-4-oxo-3,4-dihydroquinazolin-6-yl)oxy]-4-fluorophenyl}-3-fluoropyrrolidine-1-sulfonamide]	≤ 1	50 to 500	35 to 70	≤ 35
